What all share (type): cell-based
Assay [1] deals with T1, TYK2 (Homo sapiens, UniProt P29597). As to the kind of experiment: TYK2 degradation MSD assay in human PBMC cells. Further details: endogenous in cells; host or cells: human PBMC. The following applies: 4 to 24 hours incubation, read-out: TYK2 MSD DC50 rating in human PBMC. The method, then:
(§1) Example 3. TYK2 Degradation MSD Assay in EBV-B, OCI-LY10, and Human PBMC Cells
(§2) Degradation of TYK2 in cells was quantitatively measured using Meso Scale Discovery (MSD) technology. EBV-B, OCI-LY10 or human PBMC cells were seeded in 96-well plates with a density of 0.4 million cells per well in 100 μl fresh media. Compounds were then added to the assay plates with a final top concentration of 1 to 10 μM in a 1:3 dilution series with total of 9 doses. The assay plates were then incubated for 4 to 24 hours at 37° C. under 5% CO2. The assay plates were then centrifuged for 5 minutes, and the cell pellets were treated with 100 μl/well RIPA lysis buffer (Boston Bioproducts, BP-115D) with protease and phosphatase inhibitors (Roche, 05892791001 and 04906837001). To prepare MSD assay plates (MSD, L15XA), the plates were coated with the capture antibody (Santa Cruz Biotechnology, SC-5271) in PBS, at 40 μl/well. The plates were then incubated overnight at 4° C., washed 3 times with 150 μl/well TBST buffer (Cell Signaling Technology, 9997S) and blocked with 150 μl/well blocking buffer (MSD, R93BA-4). Cell lysates were then added to MSD assay plates and the plates were incubated at room temperature for 1 hour. The plates were then washed 3 times with 150 μl/well TBST buffer and 25 μl/well primary detection antibody (Cell Signaling Technology, #9312). The assay plates were then incubated at room temperature for 1 hour, washed 3 times with 150 μl/well TBST buffer, and 25 μl/well secondary detection antibody, SULFO-TAG anti-rabbit antibody (MSD, R32AB-1) were added. The assay plates were then incubated at room temperature for 1 hour, washed 3 times with 150 μl/well TBST buffer, and 150 μl/well MSD reading buffer (MSD, R92TC-2) were added. The plates were then analyzed by an MSD reader. The data was analyzed by GraphPad Prism and the dose dependent TYK2 degradation was fit using the four-parameter inhibitor vs. response nonlinear regression. The DC50 data were measured and categorized into different levels in Table H. The compound with DC50 less than or equal to 1 nM is marked as A, with DC50 more than 1 nM and less than or equal to 10 nM is marked as B, with DC50 more than 10 nM and less than or equal to 100 nM is marked as C, and with DC50 more than 100 nM or not available is marked as D.

Assay [2] addresses T1, TYK2. As to the kind of experiment: TYK2 degradation MSD assay in EBV-B cells. Also on record: endogenous in cells; host or cells: EBV-B cells. The following applies: 4 to 24 hours incubation, read-out: TYK2 MSD DC50 rating in EBV-B. The method, then:
as §1, §2

Assay [3] addresses T1, TYK2. As to the kind of experiment: TYK2 degradation MSD assay in OCI-LY10 cells. The conditions noted are these: 4 to 24 hours incubation, read-out: TYK2 MSD DC50 rating in OCI-LY10. Further details: endogenous in cells; host or cells: EBV-B cells. As to the method: as §1, §2

SMILES strings stand for the structures.

T1 sequence (P29597 whole entry): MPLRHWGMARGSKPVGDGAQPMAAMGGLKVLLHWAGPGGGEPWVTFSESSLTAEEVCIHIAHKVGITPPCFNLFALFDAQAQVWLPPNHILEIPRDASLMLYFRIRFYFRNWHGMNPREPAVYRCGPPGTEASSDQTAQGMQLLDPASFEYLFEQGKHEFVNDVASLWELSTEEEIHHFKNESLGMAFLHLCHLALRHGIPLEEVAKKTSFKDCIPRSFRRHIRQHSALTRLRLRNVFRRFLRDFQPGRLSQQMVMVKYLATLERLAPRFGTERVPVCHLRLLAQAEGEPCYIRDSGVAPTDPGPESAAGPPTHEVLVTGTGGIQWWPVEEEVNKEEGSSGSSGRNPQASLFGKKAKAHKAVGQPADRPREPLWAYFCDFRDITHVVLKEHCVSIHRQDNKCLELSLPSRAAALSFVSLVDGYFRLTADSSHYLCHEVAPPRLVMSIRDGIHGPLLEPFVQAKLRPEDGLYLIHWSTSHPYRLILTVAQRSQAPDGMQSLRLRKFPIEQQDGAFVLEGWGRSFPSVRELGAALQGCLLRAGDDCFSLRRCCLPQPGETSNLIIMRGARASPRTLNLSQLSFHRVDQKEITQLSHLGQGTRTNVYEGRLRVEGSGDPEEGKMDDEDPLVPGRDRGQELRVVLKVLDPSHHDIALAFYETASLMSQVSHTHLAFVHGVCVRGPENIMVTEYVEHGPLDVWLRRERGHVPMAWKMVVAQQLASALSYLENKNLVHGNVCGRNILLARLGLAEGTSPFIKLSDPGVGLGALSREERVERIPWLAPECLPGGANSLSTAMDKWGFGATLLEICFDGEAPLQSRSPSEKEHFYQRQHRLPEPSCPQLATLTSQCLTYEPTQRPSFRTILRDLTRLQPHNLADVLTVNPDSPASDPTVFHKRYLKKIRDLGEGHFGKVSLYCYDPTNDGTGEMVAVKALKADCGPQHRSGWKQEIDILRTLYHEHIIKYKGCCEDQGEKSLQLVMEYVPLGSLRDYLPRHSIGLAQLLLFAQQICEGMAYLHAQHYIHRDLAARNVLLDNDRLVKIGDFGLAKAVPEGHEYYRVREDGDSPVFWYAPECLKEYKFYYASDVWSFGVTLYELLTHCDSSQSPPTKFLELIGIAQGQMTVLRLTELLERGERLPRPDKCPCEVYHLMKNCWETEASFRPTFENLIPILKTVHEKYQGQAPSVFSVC

As usually defined, the DC50 is the midpoint of the concentration-degradation curve. With `CNC(=O)c1cnc(NC(=O)NCCCCCCc2cccc3c2n(C)c(=O)n3C2CCC(=O)NC2=O)cc1Nc1cccc(-c2ncc(F)cn2)c1OC` (stereo not drawn) [Example K106], the DC50 at TYK2 [1], at TYK2 [2] and on TYK2 [3] was more than 100 nM throughout.
In the case of `CNC(=O)c1cnc(Nc2ccc(C(=O)NCCCCc3ccc4c(c3)n(C)c(=O)n4C3CCC(=O)NC3=O)cn2)cc1Nc1cccc(-c2ncc(F)cn2)c1OC` (stereo not drawn) [Example K107], the DC50 was less than 1 nM on TYK2 [1], more than 100 nM at TYK2 [2] and more than 100 nM at TYK2 [3].
On to `CNC(=O)c1cnc(Nc2ccc(C(=O)NCCCCCCc3ccc4c(c3)n(C)c(=O)n4C3CCC(=O)NC3=O)cn2)cc1Nc1cccc(-c2ncc(F)cn2)c1OC` (stereo not drawn) [Example K110], for which the results for the DC50 on TYK2 [1], on TYK2 [2] and on TYK2 [3] were less than 1 nM, more than 100 nM and more than 100 nM, respectively.
On to `CNC(=O)c1cnc(Nc2ccc(C(=O)NCCCCCCCCc3ccc4c(c3)n(C)c(=O)n4C3CCC(=O)NC3=O)cn2)cc1Nc1cccc(-c2ncc(F)cn2)c1OC` (stereo not drawn) [Example K111], for which the DC50 at TYK2 [1] was less than 1 nM; on TYK2 [2] it was 1 to 10 nM; at TYK2 [3], more than 100 nM.
Regarding `CNC(=O)c1cnc(Nc2ccc(C(=O)NCCOCCOCCc3ccc4c(c3)n(C)c(=O)n4C3CCC(=O)NC3=O)cn2)cc1Nc1cccc(-c2ncc(F)cn2)c1OC` (stereo not drawn) [Example K112], the DC50 at TYK2 [1] was 1 to 10 nM; on TYK2 [2], 1 to 10 nM; at TYK2 [3], more than 100 nM.
For the molecule `CNC(=O)c1cnc(Nc2ccc(C(=O)NCCOCCOCCOCCOCCc3ccc4c(c3)n(C)c(=O)n4C3CCC(=O)NC3=O)cn2)cc1Nc1cccc(-c2ncc(F)cn2)c1OC` (stereo not drawn) [Example K113], the results for the DC50 at TYK2 [1], on TYK2 [2] and on TYK2 [3] were 1 to 10 nM, more than 100 nM and more than 100 nM, respectively.
For the molecule `CNC(=O)c1cnc(Nc2ccc(C(=O)NCCCCc3cccc4c3n(C)c(=O)n4C3CCC(=O)NC3=O)cn2)cc1Nc1cccc(-c2ncc(F)cn2)c1OC` (stereo not drawn) [Example K114], the DC50 at TYK2 [1] is less than 1 nM; on TYK2 [2] it was 1 to 10 nM; on TYK2 [3], less than 1 nM.
On to `CNC(=O)c1cnc(Nc2ccc(C(=O)NCCCCCCc3cccc4c3n(C)c(=O)n4C3CCC(=O)NC3=O)cn2)cc1Nc1cccc(-c2ncc(F)cn2)c1OC` (stereo not drawn) [Example K115], for which the results for the DC50 at TYK2 [1], at TYK2 [2] and on TYK2 [3] were less than 1 nM, less than 1 nM and more than 100 nM, respectively.
In the case of `CNC(=O)c1cnc(Nc2ccc(C(=O)NCCCCCCCCc3cccc4c3n(C)c(=O)n4C3CCC(=O)NC3=O)cn2)cc1Nc1cccc(-c2ncc(F)cn2)c1OC` (stereo not drawn) [Example K116], the DC50 on TYK2 [1] was 1 to 10 nM; at TYK2 [2], 1 to 10 nM; on TYK2 [3], more than 100 nM.
As for `CNC(=O)c1cnc(Nc2cc(C(=O)NCCCCc3ccc4c(c3)n(C)c(=O)n4C3CCC(=O)NC3=O)ccn2)cc1Nc1cccc(-c2ncc(F)cn2)c1OC` (stereo not drawn) [Example K126], the half-maximal degradation concentration (DC50) is less than 1 nM at TYK2 [1], more than 100 nM on TYK2 [2] and more than 100 nM on TYK2 [3].
In the case of `CNC(=O)c1cnc(Nc2cc(C(=O)NCCCCCCc3ccc4c(c3)n(C)c(=O)n4C3CCC(=O)NC3=O)ccn2)cc1Nc1cccc(-c2ncc(F)cn2)c1OC` (stereo not drawn) [Example K127], the DC50 was less than 1 nM at TYK2 [1], more than 100 nM on TYK2 [2] and more than 100 nM at TYK2 [3].
Take `CNC(=O)c1cnc(Nc2cc(C(=O)NCCCCc3cccc4c3n(C)c(=O)n4C3CCC(=O)NC3=O)ccn2)cc1Nc1cccc(-c2ncc(F)cn2)c1OC` (stereo not drawn) [Example K128]: the figures for the DC50 on TYK2 [1], on TYK2 [2] and on TYK2 [3] were 1 to 10 nM, more than 100 nM and more than 100 nM, respectively.
In the case of `CNC(=O)c1cnc(Nc2cc(C(=O)NCCCCCCCCc3ccc4c(c3)n(C)c(=O)n4C3CCC(=O)NC3=O)ccn2)cc1Nc1cccc(-c2ncc(F)cn2)c1OC` (stereo not drawn) [Example K129], the DC50 at TYK2 [1] is less than 1 nM; at TYK2 [2] it was 1 to 10 nM; at TYK2 [3] it was more than 100 nM.
Take `CNC(=O)c1cnc(Nc2cc(C(=O)NCCCCCCCCc3cccc4c3n(C)c(=O)n4C3CCC(=O)NC3=O)ccn2)cc1Nc1cccc(-c2ncc(F)cn2)c1OC` (stereo not drawn) [Example K130]: the DC50 is 1 to 10 nM at TYK2 [1], 1 to 10 nM at TYK2 [2] and more than 100 nM at TYK2 [3].
Turning to `CNC(=O)c1cnc(Nc2ccc(C(=O)N(C)C3CCN(c4ccc5c(c4)n(C)c(=O)n5C4CCC(=O)NC4=O)CC3)cn2)cc1Nc1ccccc1OC` (stereo not drawn) [Example K133], the DC50 at TYK2 [1] is more than 100 nM; at TYK2 [2] it was 1 to 10 nM; at TYK2 [3] it was more than 100 nM.
On to `CNC(=O)c1cnc(Nc2ccc(CN(C)CC3CCN(Cc4cccc5c4n(C)c(=O)n5C4CCC(=O)NC4=O)CC3)cn2)cc1Nc1cccc(-c2ncc(F)cn2)c1OC` (stereo not drawn) [Example K134], for which the figures for the DC50 at TYK2 [1], on TYK2 [2] and on TYK2 [3] were less than 1 nM, less than 1 nM and more than 100 nM, respectively.
Take `CNC(=O)c1cnc(Nc2ccc(CN(C)CC3CCN(c4ccc5c(c4)n(C)c(=O)n5C4CCC(=O)NC4=O)CC3)cn2)cc1Nc1cccc(-c2ncc(F)cn2)c1OC` (stereo not drawn) [Example K135]: the results for the DC50 at TYK2 [1], on TYK2 [2] and at TYK2 [3] were less than 1 nM, less than 1 nM and more than 100 nM, respectively.
For `CNC(=O)c1cnc(Nc2ccc(CN3CCC(CC#Cc4cccc5c4n(C)c(=O)n5C4CCC(=O)NC4=O)CC3)cn2)cc1Nc1cccc(-c2ncc(F)cn2)c1OC` (stereo not drawn) [Example K136], the DC50 on TYK2 [1] was 1 to 10 nM; on TYK2 [2] it was less than 1 nM; at TYK2 [3], more than 100 nM.
In the same order, the values of `CNC(=O)c1cnc(Nc2ccc(CN(C)C3CCN(Cc4cccc5c4n(C)c(=O)n5C4CCC(=O)NC4=O)CC3)cn2)cc1Nc1cccc(-c2ncc(F)cn2)c1OC` (stereo not drawn) [Example K137] are less than 1 nM, less than 1 nM and more than 100 nM.
As to `CNC(=O)c1cnc(Nc2ccc(CN3CCN(CCc4ccc5c(c4)n(C)c(=O)n5C4CCC(=O)NC4=O)CC3)cn2)cc1Nc1cccc(-c2ncc(F)cn2)c1OC` (stereo not drawn) [Example K138], the DC50 at TYK2 [1] was less than 1 nM; at TYK2 [2], less than 1 nM; on TYK2 [3], more than 100 nM.
In the case of `CNC(=O)c1cnc(Nc2ccc(CN3CCN(CC4CCN(c5ccc(-c6ccc7c(c6)n(C)c(=O)n7C6CCC(=O)NC6=O)cc5)CC4)CC3)cn2)cc1Nc1cccc(-c2ncc(F)cn2)c1OC` (stereo not drawn) [Example K139], the DC50 at TYK2 [1] is less than 1 nM; at TYK2 [2], less than 1 nM; on TYK2 [3], more than 100 nM.
With `CNC(=O)c1cnc(Nc2ccc(CN3CCC(N4CC(c5ccc6c(c5)n(C)c(=O)n6C5CCC(=O)NC5=O)C4)CC3)cn2)cc1Nc1cccc(-c2ncc(F)cn2)c1OC` (stereo not drawn) [Example K140], the DC50 at TYK2 [1] was 1 to 10 nM; on TYK2 [2] it was less than 1 nM; at TYK2 [3] it was more than 100 nM.
Take `CNC(=O)c1cnc(Nc2ccc(CN3CCC(OC4CC(c5cccc6c5n(C)c(=O)n6C5CCC(=O)NC5=O)C4)CC3)cn2)cc1Nc1cccc(-c2ncc(F)cn2)c1OC` (stereo not drawn) [Example K141]: the DC50 on TYK2 [1] was less than 1 nM; at TYK2 [2], more than 100 nM; on TYK2 [3], less than 1 nM.
For `CNC(=O)c1cnc(Nc2ccc(CN3CC(C)(Cc4ccc5c(c4)n(C)c(=O)n5C4CCC(=O)NC4=O)C3)cn2)cc1Nc1cccc(-c2ncc(F)cn2)c1OC` (stereo not drawn) [Example K142], the values for the DC50 on TYK2 [1], at TYK2 [2] and on TYK2 [3] were 1 to 10 nM, less than 1 nM and more than 100 nM, respectively.
As to `CNC(=O)c1cnc(Nc2ccc(CN3CCN(C(=O)CCc4ccc5c(c4)n(C)c(=O)n5C4CCC(=O)NC4=O)CC3)cn2)cc1Nc1cccc(-c2ncc(F)cn2)c1OC` (stereo not drawn) [Example K143], the DC50 at TYK2 [1] is less than 1 nM; at TYK2 [2], more than 100 nM; on TYK2 [3], more than 100 nM.

These data come from patent US20250051338A1, “TYK2 DEGRADERS AND USES THEREOF” (Kymera Therapeutics, Inc., priority 2021, published 2025).
